# From PubChem BioAssay (NCI)
#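 48-hour exposure; five concentrations; linearly interpolated endpoints. GI50 marks 50% less growth. TGI: concentration producing complete growth inhibition.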
# What was measured:
# Experiment in all cases: inhibition of tumour cell growth, NCI panel, 48 h
# CAKI-1 renal = test system: CAKI-1 renal
# SNB-19 CNS = test system: SNB-19 CNS
# 786-0 renal = test system: 786-0 renal
# MCF7 breast = test system: MCF7 breast
# TK-10 renal = test system: TK-10 renal
# NCI-H522 lung = test system: NCI-H522 lung
# K-562 leukemia = test system: K-562 leukemia
# UACC-62 melanoma = test system: UACC-62 melanoma
# SNB-75 CNS = test system: SNB-75 CNS
# NCI/ADR-RES ovarian = test system: NCI/ADR-RES ovarian
# SN12C renal = test system: SN12C renal
# DU-145 prostate = test system: DU-145 prostate
# A498 renal = test system: A498 renal
# SF-539 CNS = test system: SF-539 CNS
# HCC-2998 colon = test system: HCC-2998 colon
# U251 CNS = test system: U251 CNS
# SF-295 CNS = test system: SF-295 CNS
# M14 melanoma = test system: M14 melanoma
# NCI-H23 lung = test system: NCI-H23 lung
# HCT-116 colon = test system: HCT-116 colon
# A549 NSCLC = test system: A549 NSCLC
# SW-620 colon = test system: SW-620 colon
# EKVX NSCLC = test system: EKVX NSCLC
# SK-MEL-2 melanoma = test system: SK-MEL-2 melanoma
# COLO 205 colon = test system: COLO 205 colon
# LOX IMVI melanoma = test system: LOX IMVI melanoma
# MOLT-4 leukemia = test system: MOLT-4 leukemia
# HL-60(TB) leukemia = test system: HL-60(TB) leukemia
# ACHN renal = test system: ACHN renal
# RXF 393 renal = test system: RXF 393 renal
# HCT-15 colon = test system: HCT-15 colon
# HT29 colon = test system: HT29 colon
# UO-31 renal = test system: UO-31 renal
# MALME-3M melanoma = test system: MALME-3M melanoma
# SK-MEL-5 melanoma = test system: SK-MEL-5 melanoma
# CCRF-CEM leukemia = test system: CCRF-CEM leukemia
# OVCAR-3 ovarian = test system: OVCAR-3 ovarian
# IGROV1 ovarian = test system: IGROV1 ovarian
# UACC-257 melanoma = test system: UACC-257 melanoma
# NCI-H460 lung = test system: NCI-H460 lung
# HOP-62 NSCLC = test system: HOP-62 NSCLC
# MDA-MB-231 breast = test system: MDA-MB-231 breast
# SR leukemia = test system: SR leukemia
# OVCAR-4 ovarian = test system: OVCAR-4 ovarian
# SF-268 CNS = test system: SF-268 CNS
# NCI-H226 lung = test system: NCI-H226 lung
# PC-3 prostate = test system: PC-3 prostate
# OVCAR-5 ovarian = test system: OVCAR-5 ovarian
# SK-OV-3 ovarian = test system: SK-OV-3 ovarian
# SK-MEL-28 melanoma = test system: SK-MEL-28 melanoma
# T-47D breast = test system: T-47D breast
# RPMI-8226 leukemia = test system: RPMI-8226 leukemia
# HOP-92 NSCLC = test system: HOP-92 NSCLC
# HS 578T breast = test system: HS 578T breast
# OVCAR-8 ovarian = test system: OVCAR-8 ovarian
smiles,measurement,setting,value
COc1cc(-c2nc3ccccc3s2)ccc1OCCCCOc1cc2c(cc1OC)C(=O)N1CCC[C@H]1C=N2,GI50,CAKI-1 renal,0.949 µM
same,TGI,CAKI-1 renal,11.6 µM
same,GI50,SNB-19 CNS,1.57 µM
same,TGI,SNB-19 CNS,4.11 µM
same,GI50,786-0 renal,0.9 µM
same,TGI,786-0 renal,2.17 µM
same,GI50,MCF7 breast,0.471 µM
same,TGI,MCF7 breast,3.57 µM
same,GI50,TK-10 renal,2.27 µM
same,TGI,TK-10 renal,8.81 µM
same,GI50,NCI-H522 lung,0.736 µM
same,TGI,NCI-H522 lung,3.16 µM
same,GI50,K-562 leukemia,0.372 µM
same,TGI,K-562 leukemia,5.88 µM
same,GI50,UACC-62 melanoma,1.41 µM
same,TGI,UACC-62 melanoma,2.84 µM
same,GI50,SNB-75 CNS,1.4 µM
same,TGI,SNB-75 CNS,2.84 µM
same,GI50,NCI/ADR-RES ovarian,2.13 µM
same,TGI,NCI/ADR-RES ovarian,6.12 µM
same,GI50,SN12C renal,1.39 µM
same,TGI,SN12C renal,3.87 µM
same,GI50,DU-145 prostate,0.832 µM
same,TGI,DU-145 prostate,6.06 µM
same,GI50,A498 renal,1.6 µM
same,TGI,A498 renal,4.16 µM
same,GI50,SF-539 CNS,1.61 µM
same,TGI,SF-539 CNS,3.22 µM
same,GI50,HCC-2998 colon,1.1 µM
same,TGI,HCC-2998 colon,2.69 µM
same,GI50,U251 CNS,0.489 µM
same,TGI,U251 CNS,1.63 µM
same,GI50,SF-295 CNS,2.02 µM
same,TGI,SF-295 CNS,10.3 µM
same,GI50,M14 melanoma,1.38 µM
same,TGI,M14 melanoma,2.92 µM
same,GI50,NCI-H23 lung,1.47 µM
same,TGI,NCI-H23 lung,4.72 µM
same,GI50,HCT-116 colon,0.57 µM
same,TGI,HCT-116 colon,2.19 µM
same,GI50,A549 NSCLC,2.8 µM
same,TGI,A549 NSCLC,7.91 µM
same,GI50,SW-620 colon,0.801 µM
same,TGI,SW-620 colon,2.72 µM
same,GI50,EKVX NSCLC,2.24 µM
same,TGI,EKVX NSCLC,5.51 µM
same,GI50,SK-MEL-2 melanoma,1.6 µM
same,TGI,SK-MEL-2 melanoma,4.23 µM
same,GI50,COLO 205 colon,0.697 µM
same,TGI,COLO 205 colon,2.26 µM
same,GI50,LOX IMVI melanoma,0.726 µM
same,TGI,LOX IMVI melanoma,2.22 µM
same,GI50,MOLT-4 leukemia,0.952 µM
same,TGI,MOLT-4 leukemia,7.99 µM
same,GI50,HL-60(TB) leukemia,0.93 µM
same,TGI,HL-60(TB) leukemia,4.98 µM
same,GI50,ACHN renal,1.31 µM
same,TGI,ACHN renal,5.8 µM
same,GI50,RXF 393 renal,0.24 µM
same,TGI,RXF 393 renal,0.698 µM
same,GI50,HCT-15 colon,1.7 µM
same,TGI,HCT-15 colon,4.46 µM
same,GI50,HT29 colon,0.724 µM
same,TGI,HT29 colon,7.14 µM
same,GI50,UO-31 renal,1.17 µM
same,TGI,UO-31 renal,4.06 µM
same,GI50,MALME-3M melanoma,1.55 µM
same,TGI,MALME-3M melanoma,3.46 µM
same,GI50,SK-MEL-5 melanoma,0.724 µM
same,TGI,SK-MEL-5 melanoma,2.01 µM
same,GI50,CCRF-CEM leukemia,0.102 µM
same,TGI,CCRF-CEM leukemia,2.1 µM
same,GI50,OVCAR-3 ovarian,0.728 µM
same,TGI,OVCAR-3 ovarian,4.78 µM
same,GI50,IGROV1 ovarian,3.06 µM
same,TGI,IGROV1 ovarian,12.7 µM
same,GI50,UACC-257 melanoma,2.49 µM
same,TGI,UACC-257 melanoma,5.78 µM
same,GI50,NCI-H460 lung,1 µM
same,TGI,NCI-H460 lung,3.4 µM
same,GI50,HOP-62 NSCLC,1.56 µM
same,TGI,HOP-62 NSCLC,3.37 µM
same,GI50,MDA-MB-231 breast,0.911 µM
same,TGI,MDA-MB-231 breast,3.09 µM
same,GI50,SR leukemia,0.212 µM
same,TGI,SR leukemia,0.785 µM
same,GI50,OVCAR-4 ovarian,1.5 µM
same,TGI,OVCAR-4 ovarian,7.61 µM
same,GI50,SF-268 CNS,1.28 µM
same,TGI,SF-268 CNS,4.65 µM
same,GI50,NCI-H226 lung,2.47 µM
same,TGI,NCI-H226 lung,5.05 µM
same,GI50,PC-3 prostate,0.785 µM
same,TGI,PC-3 prostate,2.55 µM
same,GI50,OVCAR-5 ovarian,1.13 µM
same,TGI,OVCAR-5 ovarian,4.93 µM
same,GI50,SK-OV-3 ovarian,2.66 µM
same,TGI,SK-OV-3 ovarian,5.44 µM
same,GI50,SK-MEL-28 melanoma,1.99 µM
same,TGI,SK-MEL-28 melanoma,4.51 µM
same,GI50,T-47D breast,0.407 µM
same,TGI,T-47D breast,2.03 µM
same,GI50,RPMI-8226 leukemia,0.328 µM
same,TGI,RPMI-8226 leukemia,1.44 µM
same,GI50,HOP-92 NSCLC,0.475 µM
same,TGI,HOP-92 NSCLC,1.19 µM
same,GI50,HS 578T breast,1.23 µM
same,TGI,HS 578T breast,4.47 µM
same,GI50,OVCAR-8 ovarian,1.99 µM
same,TGI,OVCAR-8 ovarian,22.7 µM
